Assay results: patent US20160264593A1 (priority 2013, published 2016)
Where “and” joins values, the source holds several entries; their conditions need not be identical. Equal entries are not always repeated.

Test: Pharmacokinetic study of 151 (and 100) in SD rats, iv and oral; plasma
Conditions: for AUC0-t of 151 / AUC0-∞ of 151 / CL of 151 / MRT of 151 / T1/2 of 151 / Vss of 151 / Cmax of 151: plasma
Procedure: A pharmacokinetic study of 151 was conducted in SD rats. The study consisted of two dose levels at 1.0 (iv) and 10 (oral) mg/kg. The blood samples were collected at predetermined times from rats and centrifuged to separate plasma. An LC/MS/MS method was developed to determine the test article in plasma samples. The pharmacokinetic parameters of 151 following iv and oral administration to SD rats were calculated. The absolute bioavailability was evaluated.
The final concentration of the test article was 0.2 mg/mL for iv administration and 1.0 mg/mL for oral administration. The test article solutions were administered using the most recent body weight for each animal.
Blood (approximately 0.3 mL) were collected via orbital plexus into tubes containing sodium heparin at 0.25, 0.5, 1, 2, 3, 5, 7, 9, and 24 hours after oral administration; at 5 min, 15 min, 0.5, 1, 2, 3, 5, 7, 9 and 24 hours after iv administration. Samples were centrifuged for 5 min, at 4° C. with the centrifuge set at 11,000 rpm to separate plasma. The obtained plasma samples were stored frozen at a temperature of about −70° C. until analysis.
Frozen plasma samples were thawed at room temperature and vortexed thoroughly. With a pipette, an aliquot (30 μL) of plasma was transferred into a 1.5-mL conical polypropylene tube. To each sample, 160 μL of acetonitrile were added. The samples were then vigorously vortex-mixed for 1 min. After centrifugation at 11000 rpm for 5 min, a 15 μL aliquot of the supernatant was injected into the LC-MS/MS system for analysis.
Calibration standards were prepared by spiking 30 μL of the 151 standard solutions into 30 μL of heparinized blank rat plasma. The nominal standard concentrations in the standard curve were 1.00, 3.00, 10.0, 30.0, 100, 300, 1000 and 3000 ng/mL.
The analysis was performed using an LC-MS/MS system consisting of the following components—HPLC system: Agilent 1200 series instrument consisting of G1312B vacuum degasser, G1322A binary pump, G1316B column oven and G1367D autosampler (Agilent, USA); MS/MS system: Agilent 6460 triple quadrupole mass spectrometer, equipped with an APCI Interface (Agilent, USA); Data system: MassHunter Software (Agilent, USA).
Chromatographic separation was carried out at room temperature—Analytical column: C8 column (4.6 mm×150 mm I.D., 5 μm, Agilent, USA); Mobile phase: Acetonitrile:10 mM ammonium acetate (75:25, v/v); Flow rate: 0.80 mL/min; Injection volume: 15 μL.
The mass spectrometer was operated in the positive mode. Ionization was performed applying the following parameters: gas temperature, 325° C.; vaporizer temperature, 350° C.; gas flow, 4 L/min; nebulizer, 20 psi; capillary voltage, 4500 V; corona current, 4 μA. 151 was detected using MRM of the transitions m/z 283→m/z 123 and m/z 283→m/z 251, simultaneously. The optimized collision energies of 25 eV and 10 eV were used for m/z 123 and m/z 251, respectively.
Quantification was achieved by the external standard method. Concentrations of the test article were calculated using a weighted least-squares linear regression (W=1/x^2).
The pharmacokinetic parameters were evaluated using WinNonlin version 5.3 (Pharsight Corp., Mountain View, Calif., USA), assuming a non-compartmental model for drug absorption and distribution. • AUC0-t is the area under the plasma concentration-time curve from time zero to last sampling time, calculated by the linear trapezoidal rule. • AUC0-∞ is the area under the plasma concentration-time curve from time zero extrapolating to infinity. • T1/2 is the elimination half-life associated with the terminal (log-linear) elimination phase, which is estimated via linear regression of time vs. log concentrations. • CL is the total body clearance. • Vss is the volume of distribution at steady-state.

[1] = 151 IV 1.0 mg/kg, SD rats, individual, 1 mg/kg
[2] = 151 IV 1.0 mg/kg, SD rats, mean
[3] = 151 PO 10 mg/kg, SD rats, individual, 10 mg/kg

In the case of `COC(=O)C1C2CCC(O2)C1C(=O)N1CCN(C)CC1` (centres unmarked) [Compound 151], the 151 plasma concentration (151 IV 1.0 mg/kg, SD rats, 0.083 h, individual, 1 mg/kg) is reported as 1677 ng/mL and 1301 ng/mL, the 151 plasma concentration (151 IV 1.0 mg/kg, SD rats, 0.083 h, mean) is reported as 1489 ng/mL and the 151 plasma concentration (151 IV 1.0 mg/kg, SD rats, 0.250 h, individual, 1 mg/kg) is reported as 1160 ng/mL and 949 ng/mL. For the same compound, the 151 plasma concentration (151 IV 1.0 mg/kg, SD rats, 0.250 h, mean) was 1055 ng/mL, the 151 plasma concentration (151 IV 1.0 mg/kg, SD rats, 0.50 h, individual, 1 mg/kg) was 760 ng/mL and 807 ng/mL and the 151 plasma concentration (151 IV 1.0 mg/kg, SD rats, 0.50 h, mean) was 683 ng/mL. For the same compound, the 151 plasma concentration (151 IV 1.0 mg/kg, SD rats, 1.0 h, individual, 1 mg/kg) was 381 ng/mL and 314 ng/mL, the 151 plasma concentration (151 IV 1.0 mg/kg, SD rats, 1.0 h, mean) was 348 ng/mL and the 151 plasma concentration (151 IV 1.0 mg/kg, SD rats, 2.0 h, individual, 1 mg/kg) was 95.8 ng/mL and 103 ng/mL. For the same compound, the 151 plasma concentration (151 IV 1.0 mg/kg, SD rats, 2.0 h, mean) was 99.6 ng/mL, the 151 plasma concentration (151 IV 1.0 mg/kg, SD rats, 3.0 h, individual, 1 mg/kg) was 39.6 ng/mL and 28.1 ng/mL and the 151 plasma concentration (151 IV 1.0 mg/kg, SD rats, 3.0 h, mean) was 33.8 ng/mL. The 151 plasma concentration (151 IV 1.0 mg/kg, SD rats, 5.0 h, individual, 1 mg/kg) was 9.75 ng/mL and 3.63 ng/mL, the 151 plasma concentration (151 IV 1.0 mg/kg, SD rats, 5.0 h, mean) was 6.69 ng/mL and the 151 plasma concentration (151 IV 1.0 mg/kg, SD rats, 7.0 h, individual, 1 mg/kg) was 12.2 ng/mL and 1.83 ng/mL. The 151 plasma concentration (151 IV 1.0 mg/kg, SD rats, 7.0 h, mean) was 7.02 ng/mL, the 151 plasma concentration (151 IV 1.0 mg/kg, SD rats, 9.0 h, individual) was 2.01 ng/mL and the 151 plasma concentration (151 IV 1.0 mg/kg, SD rats, 9.0 h, individual, 1 mg/kg) was “BLQ”. For the same compound, the 151 plasma concentration (151 IV 1.0 mg/kg, SD rats, 9.0 h, mean) was 1.00 ng/mL, the 151 plasma concentration (151 IV 1.0 mg/kg, SD rats, 24 h, individual) was “BLQ” and the “conversion of 151 to 100 in plasma (statement)” value (151 PO 10 mg/kg and iv 1.0 mg/kg) was “converted to LB100”. For the same compound, the 151 plasma concentration (151 PO 10 mg/kg, SD rats, 0.25 h, individual, 10 mg/kg) was 2231 ng/mL and 2029 ng/mL and 2731 ng/mL, the 151 plasma concentration (151 PO 10 mg/kg, SD rats, 0.25 h, mean) was 2330 ng/mL and the 151 plasma concentration (151 PO 10 mg/kg, SD rats, 0.50 h, individual, 10 mg/kg) was 2451 ng/mL and 3934 ng/mL and 3343 ng/mL. For the same compound, the 151 plasma concentration (151 PO 10 mg/kg, SD rats, 0.50 h, mean) was 3243 ng/mL, the 151 plasma concentration (151 PO 10 mg/kg, SD rats, 1.0 h, individual, 10 mg/kg) was 2204 ng/mL and 2581 ng/mL and 2538 ng/mL and the 151 plasma concentration (151 PO 10 mg/kg, SD rats, 1.0 h, mean) was 2441 ng/mL. The 151 plasma concentration (151 PO 10 mg/kg, SD rats, 2.0 h, individual, 10 mg/kg) was 1100 ng/mL and 1237 ng/mL and 1582 ng/mL, the 151 plasma concentration (151 PO 10 mg/kg, SD rats, 2.0 h, mean) was 1306 ng/mL and the 151 plasma concentration (151 PO 10 mg/kg, SD rats, 3.0 h, individual, 10 mg/kg) was 521 ng/mL and 660 ng/mL and 794 ng/mL. For the same compound, the 151 plasma concentration (151 PO 10 mg/kg, SD rats, 3.0 h, mean) was 658 ng/mL, the 151 plasma concentration (151 PO 10 mg/kg, SD rats, 5.0 h, individual, 10 mg/kg) was 125 ng/mL and 99.4 ng/mL and 192 ng/mL and the 151 plasma concentration (151 PO 10 mg/kg, SD rats, 5.0 h, mean) was 139 ng/mL. The 151 plasma concentration (151 PO 10 mg/kg, SD rats, 7.0 h, individual, 10 mg/kg) was 42.6 ng/mL and 20.7 ng/mL and 68.0 ng/mL, the 151 plasma concentration (151 PO 10 mg/kg, SD rats, 7.0 h, mean) was 43.8 ng/mL and the 151 plasma concentration (151 PO 10 mg/kg, SD rats, 9.0 h, individual, 10 mg/kg) was 52.1 ng/mL and 38.2 ng/mL and 66.1 ng/mL. For the same compound, the 151 plasma concentration (151 PO 10 mg/kg, SD rats, 9.0 h, mean) was 52.1 ng/mL, the 151 plasma concentration (151 PO 10 mg/kg, SD rats, 24 h, individual) was “BLQ” and the “F of 151” value (151 PO 10 mg/kg, SD rats, mean) was 54.6%. The “conversion to endothal in the plasma (statement)” value (151 administered to rats) was “converted to endothal”, the “mean clearance of 151 from rat plasma” value (151 iv 1.0 mg/kg) was 14.3 mL/min/kg and the “volume of distribution at steady state of 151” value (151 iv 1.0 mg/kg) was 0.736 L/kg. The “elimination half-life of 151” value (151 iv 1.0 mg/kg (n=2)) was 0.89 h, the “mean half-life of 151” value (151 oral 10 mg/kg (n=3)) was 1.26 h and the “time of peak plasma concentration of 151” value (151 oral 10 mg/kg (n=3)) was 0.5 h. The “absolute bioavailability (F) of 151” value (oral 10 mg/kg, based on AUC0-∞) was 54.6%, the “AUC0-t of 151” value [1] was 1293 ng·h/mL and 1045 ng·h/mL and the “AUC0-∞ of 151” value [1] was 1309 ng·h/mL and 1047 ng·h/mL. For the same compound, the “CL of 151” value [1] was 12.7 mL/min/kg and 15.9 mL/min/kg, the “MRT of 151” value [1] was 0.91 h and 0.81 h and the “T1/2 of 151” value [1] was 0.91 h and 0.87 h. For the same compound, the “Vss of 151” value [1] was 0.696 L/kg and 0.775 L/kg, the “AUC0-t of 151” value [2] was 1169 ng·h/mL and the “AUC0-∞ of 151” value [2] was 1178 ng·h/mL. For the same compound, the “CL of 151” value [2] was 14.3 mL/min/kg, the “MRT of 151” value [2] was 0.86 h and the “T1/2 of 151” value [2] was 0.89 h. The “Vss of 151” value [2] was 0.736 L/kg, the “AUC0-t of 151” value [3] was 5399 ng·h/mL and 6423 ng·h/mL and 7199 ng·h/mL and the “AUC0-∞ of 151” value [3] was 5499 ng·h/mL and 6484 ng·h/mL and 7328 ng·h/mL. For the same compound, the “Cmax of 151” value [3] was 2451 ng/mL and 3934 ng/mL and 3343 ng/mL, the “MRT of 151” value [3] was 1.86 h and 1.62 h and 1.95 h and the “T1/2 of 151” value [3] was 1.33 h and 1.10 h and 1.35 h. For the same compound, the “AUC0-t of 151” value (151 PO 10 mg/kg, SD rats, mean) was 6340 ng·h/mL, the “AUC0-∞ of 151” value (151 PO 10 mg/kg, SD rats, mean) was 6437 ng·h/mL and the “Cmax of 151” value (151 PO 10 mg/kg, SD rats, mean) was 3243 ng/mL. For the same compound, the “MRT of 151” value (151 PO 10 mg/kg, SD rats, mean) was 1.81 h and the “T1/2 of 151” value (151 PO 10 mg/kg, SD rats, mean) was 1.26 h.
